In brackets after ≈: the same amount, converted by molar mass. Like-named read-outs stand apart in the source and are kept apart here.
Tests used:
[1] = system: late-stages (IV – V) gametocytes; assay: microbe, parasite or virus in culture; details: Plasmodium falciparum
Description: (§1) In vitro Antigametocytic Activity Assay. Gametocytes were produced as per the method reported by Reader and co-workers.3 The luciferase reporter assay was used to enable accurate, reliable and quantifiable investigations of the stage-specific action of gametocytocidal compounds for the early and late gametocyte marker cell line NF54-PfS16-GFP-Luc.
(§2) (representing >90% of either early stage II/III or mature/late stage IV/V gametocytes, respectively). […]
(§3) h drug pressure in a gas chamber (90% N 2, 5% O 2, and 5% CO 2) at 37 °C. Luciferase activity was determined in 30 µl parasite lysates by adding 30 µl luciferin substrate (Promega Luciferase Assay System) at room temperature and detection of resultant bioluminescence at an integration constant of 10s with the GloMax® Explorer Detection System with Instinct® Software. […]
(§4) µM) and internal project specific controls were included as controls. The dual point screens were performed as technical triplicates for a single biological assay.

[2] = system: immature-stage gametocytes (PfiGc), NF54-PfS16-GFP-Luc; assay: Antigametocytic luciferase reporter assay, immature/early stage; details: Plasmodium falciparum; for inhibition at 1 µM / inhibition at 5 µM: NF54, 48 h; for inhibition at 1 µM: read-out: Early gametocytes (EG) % activity, 1.0 µM; for inhibition at 5 µM: read-out: Early gametocytes (EG) % activity, 5.0 µM
[3] = system: late-stage gametocytes (PfLGc), NF54-PfS16-GFP-Luc; assay: Antigametocytic luciferase reporter assay, late stage; details: Plasmodium falciparum; for inhibition at 1 µM / inhibition at 5 µM: NF54, 48 h; for inhibition at 1 µM: read-out: Late gametocytes (LG) % activity, 1.0 µM; for inhibition at 5 µM: read-out: Late gametocytes (LG) % activity, 5.0 µM
Description: as §1, §2, §3, §4

P. berghei = details: in vivo, po
Description: In vivo Antiplasmodium Assay (Swiss TPH).
described,5 with the modification that mice (n = 3) were infected with a GFP -transfected P. berghei
ANKA strain (donated by A. P. Waters and C. J. Janse, Leiden University, The Netherlands), and
parasitemia was determined using standard flow cytometry techniques. The detection limit was 1
parasite in 1000 erythrocytes (that is, 0.1%). The activity was calculated as the difference between
the mean percent parasitemia for the control and treated groups expressed as a percent relative to the
control group. Compounds were dissolved or suspended in a vehicle consisting of 70% Tween -80
and 30% ethanol, followed by a 10 -fold dilution in H 2O and oral administration as four consecutive
Blood samples for the quadruple -dose regimens
The survival time in days was also recorded up to 30
days after infection. A compound was considered curative if the animal survived to day 30 after
infection with no detectable parasites by slide reading .

[4] = Turbidimetric kinetic aqueous solubility; assay type: physicochemical; details: turbidimetric method, PBS pH 7.4, read-out: Sol. (solubility)
Description: Aqueous Solubility. Solubility was measured from amorphous solid forms of the compounds using the turbidimetric method. Following the dissolution of test compound in DMSO to make a 10 mM stock solution, a pre-dilution plate was prepared by taking from each stock solution and serially […]
pre-dilution solution, secondary dilutions of the compounds in both DMSO and 0.01M pH 7.4 PBS were prepared in triplicate on a second 96-well plate. Wells in columns 1-6 would contain […]
(§5) nominal concentrations as those in DMSO. The final volume of solvent in each assay plate was 200 µl, prepared by pipetting 4 µl each of solution from the pre-dilution plate to the corresponding well into both DMSO and PBS (both 196 µL). This ensures that the final concentration of DMSO in the […]
(§6) Similarly, a second secondary plate containing
(§7) Different concentrations in DMSO were prepared as controls to determine false turbidimetric absorbance readings arising from the compounds in solution absorbing incident radiation at the test wavelength. Following preparation, the assay plate was covered and left to equilibrate for 2 h at 25 °C. Afterwards, UV-vis absorbance readings from the plate were measured at 620 nm using a SpectraMax 340PC384 microplate reader. Plots of corrected absorbance against compound concentration were computed for a graphical representation of the data using MS Excel. Reserpine and hydrocortisone were used as positive and negative controls, respectively.
(§8) In vitro Antiplasmodium Assay. The compounds were tested using the modified [3H]-hypoxanthine incorporation assay, as previously reported.1
(§9) In vitro Cytotoxicity Assay. Compounds were screened against Chinese Hamster Ovarian (CHO) mammalian cell lines, using the 3-(4,5-dimethylthiazol-2-yl)-2,5-diphenyltetrazoliumbromide […]
It was prepared to 2 mg/ml in distilled water, while the stock solutions of test compounds were prepared to 20 mg/ml in DMSO (100%), […]
lowest being 0.001 µg/ml. […]
of cell suspension in each well and developed afterward by adding 25 µl of sterile MTT (Thermo

hERG K+ channel = target: T1, hERG K+ channel (Homo sapiens, UniProt Q12809); assay: QPatch hERG assay; assay type: cell-based; details: CHO K1 cells stably expressing hERG
T1 construct: host or cells: CHO K1 (ATCC), stably expressing hERG
T1 sequence (Q12809 whole entry): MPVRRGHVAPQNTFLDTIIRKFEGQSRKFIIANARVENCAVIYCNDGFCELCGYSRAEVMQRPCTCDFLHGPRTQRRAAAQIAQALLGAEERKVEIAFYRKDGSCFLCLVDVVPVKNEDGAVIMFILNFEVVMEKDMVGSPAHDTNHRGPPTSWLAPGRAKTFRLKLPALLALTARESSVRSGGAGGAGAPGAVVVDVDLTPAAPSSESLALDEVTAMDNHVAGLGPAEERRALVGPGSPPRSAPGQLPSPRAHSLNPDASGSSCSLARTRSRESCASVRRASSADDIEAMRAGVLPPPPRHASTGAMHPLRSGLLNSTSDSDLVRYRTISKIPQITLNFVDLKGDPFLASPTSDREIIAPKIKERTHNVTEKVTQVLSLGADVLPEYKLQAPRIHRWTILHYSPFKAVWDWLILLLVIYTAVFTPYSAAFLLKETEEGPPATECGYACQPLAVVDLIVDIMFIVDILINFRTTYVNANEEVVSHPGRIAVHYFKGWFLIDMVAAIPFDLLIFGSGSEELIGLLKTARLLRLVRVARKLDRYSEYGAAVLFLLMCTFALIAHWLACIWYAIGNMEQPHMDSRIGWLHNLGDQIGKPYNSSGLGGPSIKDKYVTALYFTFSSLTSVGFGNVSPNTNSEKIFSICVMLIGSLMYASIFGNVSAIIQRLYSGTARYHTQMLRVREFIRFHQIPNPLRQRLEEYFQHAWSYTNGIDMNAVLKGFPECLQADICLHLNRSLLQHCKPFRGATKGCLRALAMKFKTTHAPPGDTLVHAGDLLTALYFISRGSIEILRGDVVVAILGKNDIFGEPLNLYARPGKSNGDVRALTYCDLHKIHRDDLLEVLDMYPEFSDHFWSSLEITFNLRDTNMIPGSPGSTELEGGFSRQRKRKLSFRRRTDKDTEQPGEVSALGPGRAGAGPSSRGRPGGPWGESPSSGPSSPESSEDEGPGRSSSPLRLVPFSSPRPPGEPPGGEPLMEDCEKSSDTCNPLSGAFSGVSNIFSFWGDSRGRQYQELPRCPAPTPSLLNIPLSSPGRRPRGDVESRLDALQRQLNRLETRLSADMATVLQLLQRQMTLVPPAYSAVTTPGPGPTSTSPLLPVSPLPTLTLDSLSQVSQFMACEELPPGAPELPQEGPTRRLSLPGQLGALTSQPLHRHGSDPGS
Description: In vitro Liver-stage Assay (P. berghei-sporozoite Infection). In a 24-well plate, HepG2 was seeded
employed as reference drugs. Negative control wells received medium only.
cells were trypsinized and the percentage (%) of infected cells was determined by flow cytometry
(BD LSRFortessa) using at least 10000 events. For determining host cell viability, in a 96-well plate,
h of incubation, a volume 100 µl of medium containing drugs was added and further incubated at 37
°C. Negative control wells received medium only and positive wells received gentian violet. After
Drugs were tested in five different concentrations, each one in

[5] = system: PfK1 multidrug resistant strain; assay: microbe, parasite or virus in culture; assay type: cell-based, Plasmodium falciparum
[6] = system: drug sensitive (NF54) strain of Pf; assay: In vitro antiplasmodium assay, [3H]-hypoxanthine incorporation, NF54; assay type: cell-based, Plasmodium falciparum; details: for IC50: mean n ≥ 2
Description: All target compounds were evaluated for their antiplasmodium activity against the drug sensitive (NF54) strain of Pf and for turbidimetric kinetic solubility.
Aqueous Solubility. Solubility was measured from amorphous solid forms of the compounds using the turbidimetric method. Following the dissolution of test compound in DMSO to make a 10 mM stock solution, a pre-dilution plate was prepared by taking from each stock solution and serially diluting in triplicate to yield concentrations from 0.25 mM to 10.0 mM on a 96 well plate. From each pre-dilution solution, secondary dilutions of the compounds in both DMSO and 0.01M pH 7.4 PBS were prepared in triplicate on a second 96-well plate. Wells in columns 1-6 would contain […]
as §5, §6, §7, §8, §9

## COc1ccc(CCN2CCC(Nc3nc4ccccc4n3Cc3ccc(F)cc3)CC2)cc1 [AST, astemizole, reference compound]
[1]; read-out: Late gametocytes (LG) % activity, 1.0 µM
  inhibition at 1 µM: 13%
[1]; read-out: Late gametocytes (LG) % activity, 5.0 µM
  inhibition at 5 µM: 52%
[2]
  inhibition at 1 µM: 5%
  inhibition at 5 µM: 61%
[3]
  inhibition at 1 µM: 0%
  inhibition at 5 µM: 11%

## CCN(CC)CCCC(C)Nc1ccnc2cc(Cl)ccc12 (stereo not drawn) [CQ, chloroquine]
P. berghei
  MSD (mean survival days): 24 days

## FC1CN(CCc2ccc(-c3noc(C(F)(F)F)n3)cc2)CCC1Nc1nc2ccccc2[nH]1 (stereo not drawn) [Compound 7]
[4]; PBS buffer
  solubility at 2 h: 120 µM (≈ 56.9 µg/mL)
hERG K+ channel; pH 7.4, QPatch, CHO K1 cells expressing hERG
  IC50 at 4 min: 980 nM
hERG K+ channel; pH 7.4, read-out: hERG SI (selectivity index = hERG IC50/PfNF54 IC50)
  selectivity ratio at 4 min: 4.47
[2]
  inhibition at 1 µM: 0%
  inhibition at 5 µM: 27.6 ± 0.8%
[2]; NF54, read-out: gametocytes IC50, immature-stage (PfiGc / PfEG)
  IC50: 8160 nM
[3]
  inhibition at 1 µM: 10.9 ± 2.3%
  inhibition at 5 µM: 37.8 ± 0.5%
[3]; NF54, read-out: gametocytes IC50, late-stage (PfLGc / PfLG)
  IC50: 8000 nM

## F[C@H]1CN(CCc2ccc(-c3noc(C(F)(F)F)n3)cc2)CC[C@@H]1Nc1nc2ccccc2[nH]1 [Compound 8]
[5]
  RI (resistance index = PfK1 IC50/PfNF54 IC50): 2.61
[5]; Plasmodium falciparum, K1, read-out: PfIC50 K1
  IC50: 384 nM
[4]
  solubility at 2 h: 100 µM (≈ 47.4 µg/mL)
[6]; PfNF54
  fold improvement of antiplasmodium activity over 7: 1.5 fold
[6]; Plasmodium falciparum, NF54, read-out: PfIC50 NF54, sensitive NF54 strain
  IC50: 140 to 650 nM
[6]; read-out: PfIC50 NF54, sensitive NF54 strain
  IC50: 147 nM

## CN(C)c1ccc2nc3ccc(N(C)C)cc3[s+]c2c1 [methylene blue, reference compound]
[2]; NF54, read-out: gametocytes IC50, immature-stage (PfiGc / PfEG), stages I–III, n = 1, technical triplicate
  IC50: 200 nM

## COC(=O)[C@H]1[C@H]2C[C@@H]3c4[nH]c5cc(OC)ccc5c4CCN3C[C@H]2C[C@@H](OC(=O)c2cc(OC)c(OC)c(OC)c2)[C@@H]1OC [reserpine, reference compound]
[4]
  solubility at 2 h: < 10 µM

From PMC11017395 (ACS Medicinal Chemistry Letters, 2024)
